The structures appear in SMILES notation. A value given as a limit tells only on which side of the number the result lay.

Common to all, as to assay type: cell-based
The subject of assay [1] is IL3000 T. congolense (drug sensitive) strain. The experiment in a line: In vitro Alamar Blue 72 h drug sensitivity assay for T. congolense. The following applies: Trypanosoma congolense; bloodstream form, 69 h + 3 h resazurin, 34° C.; classes A-C; read-out: IC50: I Org. Growth T. congolense IL-3000, 3 d. In short, it runs like this: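 Bloodstream-form trypanosomes in HMI medium with 20% bovine serum, exposed to compound for 69 h at 34 °C, 5% CO2, then resazurin for 3 h more. Fluorescence read at 536/588 nm. IC50 from 11-point sigmoidal dose-response curves, at least three independent runs.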

For assay [2], the system named is STIB719/ILRAD560 T. vivax (drug sensitive) strain. The experiment in a line: Ex vivo Alamar Blue 48 h drug sensitivity assay for T. vivax. The following applies: Trypanosoma vivax, ex vivo bloodstream forms from mouse, 45 hrs + 3 hrs resazurin, read-out: IC50: I Hypoxanthine Incorporation T. vivax STIB 719/ILRA D 560, 2 d. The procedure:
Example 109. Ex Vivo Alamar Blue 48 h Drug Sensitivity Assay for T. vivax
[…] Test compounds were prepared as 10 mg/mL DMSO stocks for each assay run. Compounds were assayed in at least three separate, independent test runs and an 11-point dilution curve was used to determine the IC50 values. Bloodstream form trypanosomes were propagated and harvested from a highly parasitemic mouse (via cardiac puncture) and were incubated with test compounds for 45 hrs at 37° C. in a humidified atmosphere containing 5% CO2, supported in HMI media containing 20% bovine serum. […] Plates were then read using a fluorescent plate reader (Spectramax, Gemini XS, Bucher Biotec, Basel, Switzerland) using an excitation wavelength of 536 nm and an emission wavelength of 588 nm. Data points were averaged to generate sigmoidal dose-response curves and IC50 values were determined using Softmax Pro 5.2 software.
On the technique in general: The colour change of resazurin is a common sign of viable cells or microbes.

Assay [3] deals with bloodstream forms of T. b. rhodesiense STIB 900. Description: T. brucei rhodesiense STIB 900 growth inhibition assay. The following applies: Trypanosoma brucei; bloodstream forms, 72 h, Alamar Blue; protocol of Example 110; read-out: IC50: I Org. Growth T. brucei rhodesiense STIB 900, 3 d. In short, it runs like this:
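Bloodstream-form STIB 900 (10^4/well) were cultured in supplemented MEM with 15% horse serum and compound (90 to 0.123 μg/ml, 3-fold steps) for 72 h at 37 °C, 5% CO2. Viability was read by Alamar Blue fluorescence (ex 536/em 588 nm) after a further 2-4 h.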

For assay [4], the system named is L. infantum MHOM/MA(BE)/67 amastigotes in primary peritoneal mouse macrophages. Description: Leishmania infantum intracellular amastigote assay in mouse macrophages. The following applies: Macrophage, 120 h, amastigotes in primary peritoneal mouse macrophages, 5 d, Giemsa staining, read-out: Inhibition of Organism Growth in Leishmania infantum MHOM/MA/BE/67, 5 d. In short, it runs like this: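 Amastigotes harvested from infected hamster spleen infected primary peritoneal mouse macrophages (5×10^5 amastigotes/well, 2 h, 37 °C). Compounds then present 5 d at 37 °C, 5% CO2. Parasite burden counted by microscopy after Giemsa staining, as % of untreated controls; IC50 from sigmoidal variable-slope fit.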

The test system of assay [5] is Trypanosoma brucei rhodesiense STIB 900 strain. Description: Trypanosoma brucei rhodesiense STIB 900 screening assay. The following applies: STIB 900 bloodstream forms, 72 h, Alamar Blue, protocol of Example 114, read-out: Swiss TPH T b rhodesiense IC50. The protocol:
Example 114. Trypanosoma brucei rhodesiense STIB 900 Screening Assay Procedure
The Trypanosoma brucei rhodesiense STIB 900 strain was isolated in 1982 from a human patient in Tanzania and after several mouse passages cloned and adapted to axenic culture conditions (Baltz, et al., EMBO Journal 4: 1273-1277 (1985); Thuita, et al., Acta Tropica 108: 6-10 (2008)). Minimum Essential Medium (50 μL) supplemented with 25 mM HEPES, 1 g/L additional glucose, 1% MEM non-essential amino acids (100×), 0.2 mM 2-mercaptoethanol, 1 mM Na-pyruvate and 15% heat inactivated horse serum was added to each well of a 96-well microtiter plate. Serial drug dilutions of seven 3-fold steps covering a range from 90 to 0.123 μg/mL were prepared. Then 10^4 bloodstream forms of T. b. rhodesiense STIB 900 in 50 μL was added to each well and the plate incubated at 37° C. under a 5% CO2 atmosphere for 72 h. 10 μL Alamar Blue (resazurin, 12.5 mg in 100 mL double-distilled water) was then added to each well and incubation continued for a further 2-4 h (Raz, et al., Acta Tropica 68: 139-47 (1997)). Then the plates were read with a Spectramax Gemini XS microplate fluorometer (Molecular Devices Corporation, Sunnyvale, Calif., USA) using an excitation wavelength of 536 nm and an emission wavelength of 588 nm. Data were transferred into the graphic program Softmax Pro (Molecular Devices), which calculated IC50 values.

For `Cc1c(C(=O)Nc2ccc3c(c2)B(O)OC3)nnn1-c1cccc(C(F)(F)F)n1` [Example 48, N-(1-hydroxy-1,3-dihydrobenzo[c][1,2]oxaborol-6-yl)-5-methyl-1-(6-(trifluoromethyl)pyridin-2-yl)-1H-1,2,3-triazole-4-carboxamide], the IC50 in assay [1] was in the range of 100 to 300 nM; in assay [2], 201 to 500 nM.
As for `COCc1c(C(=O)Nc2ccc3c(c2)B(O)OC3)nnn1-c1ccccn1` [Example 53, N-(1-hydroxy-1,3-dihydrobenzo[c][1,2]oxaborol-6-yl)-5-(methoxymethyl)-1-(pyridin-2-yl)-1H-1,2,3-triazole-4-carboxamide], the IC50 was less than 100 nM in assay [1] and less than 200 nM in assay [2].
`O=C(Nc1ccc2c(c1)B(O)OC2)c1nnn(-c2ccccn2)c1C1CC1` [Example 54, 5-cyclopropyl-N-(1-hydroxy-1,3-dihydrobenzo[c][1,2]oxaborol-6-yl)-1-(pyridin-2-yl)-1H-1,2,3-triazole-4-carboxamide]: the IC50 in assay [1] was less than 100 nM; in assay [2], 201 to 500 nM.
As for `O=C(Nc1ccc2c(c1)B(O)OC2)c1nnn(-c2ccccn2)c1CO` [Example 55, N-(1-hydroxy-1,3-dihydrobenzo[c][1,2]oxaborol-6-yl)-5-(hydroxymethyl)-1-(pyridin-2-yl)-1H-1,2,3-triazole-4-carboxamide], the IC50 in assay [1] was less than 100 nM; in assay [2], less than 200 nM.
The like results for `O=C(Nc1ccc2c(c1)B(O)OC2)c1nnn(-c2ccccn2)c1CC(F)(F)F` [Example 56, N-(1-hydroxy-1,3-dihydrobenzo[c][1,2]oxaborol-6-yl)-1-(pyridin-2-yl)-5-(2,2,2-trifluoroethyl)-1H-1,2,3-triazole-4-carboxamide] were, in that order, 100 to 300 nM and 201 to 500 nM.
For `O=C(Nc1ccc2c(c1)B(O)OC2)c1cn(-c2ncccc2Cl)nn1` [Example 58, 1-(3-Chloropyridin-2-yl)-N-(1-hydroxy-1,3-dihydrobenzo[c][1,2]oxaborol-6-yl)-1H-1,2,3-triazole-4-carboxamide], the IC50 was less than 100 nM in assay [1]; less than 200 nM in assay [2]; less than 100 nM in assay [3]; 3000 to 19900 nM in assay [4]; less than 100 nM in assay [5].
Consider `O=C(Nc1ccc2c(c1)B(O)OC2)c1cn(-c2ccc(Cl)cn2)nn1` [Example 59, 1-(5-Chloropyridin-2-yl)-N-(1-hydroxy-1,3-dihydrobenzo[c][1,2]oxaborol-6-yl)-1H-1,2,3-triazole-4-carboxamide], for which the IC50 was less than 100 nM in assay [1]; 201 to 500 nM in assay [2]; 100 to 300 nM in assay [3]; 3000 to 19900 nM in assay [4]; less than 100 nM in assay [5].
In the case of `CC1(C)OB(O)c2cc(NC(=O)c3cn(-c4ccccn4)nn3)ccc21` [Example 62, N-(1-hydroxy-3,3-dimethyl-1,3-dihydrobenzo[c][1,2]oxaborol-6-yl)-1-(pyridin-2-yl)-1H-1,2,3-triazole-4-carboxamide], the IC50 fell in the range of 310 to 100000 nM in assay [1]; 510 to 10000 nM in assay [2]; 310 to 10000 nM in assay [3]; 20000 to 100000 nM in assay [4]; 260 to 2000 nM in assay [5].
The like results for `Cc1nn(-c2ccccc2)nc1C(=O)Nc1ccc2c(c1)B(O)OC2` [Example 72, N-(1-hydroxy-1,3-dihydrobenzo[c][1,2]oxaborol-6-yl)-5-methyl-2-phenyl-2H-1,2,3-triazole-4-carboxamide] were, in that order, less than 100 nM, 201 to 500 nM, 100 to 300 nM, 3000 to 19900 nM and less than 100 nM.
For `Cc1c(C(=O)Nc2ccc3c(c2)B(O)OC3)nnn1-c1ncccc1Cl` [Example 82, 1-(3-Chloropyridin-2-yl)-N-(1-hydroxy-1,3-dihydrobenzo[c][1,2]oxaborol-6-yl)-5-methyl-1H-1,2,3-triazole-4-carboxamide], the IC50 in assay [1] was less than 100 nM; in assay [2] it was less than 200 nM; in assay [3] it was 100 to 300 nM; in assay [4], 3000 to 19900 nM; in assay [5], 100 to 250 nM.
The like results for `Cc1c(C(=O)Nc2ccc3c(c2)B(O)OC3)nnn1-c1ccc(Cl)cn1` [Example 83, 1-(5-Chloropyridin-2-yl)-N-(1-hydroxy-1,3-dihydrobenzo[c][1,2]oxaborol-6-yl)-5-methyl-1H-1,2,3-triazole-4-carboxamide] were, in that order, less than 100 nM, 510 to 10000 nM, less than 100 nM, less than 3000 nM and less than 100 nM.
The like results for `Cc1c(C(=O)Nc2ccc3c(c2)B(O)OC3(C)C)nnn1-c1ccccn1` [Example 85, N-(1-hydroxy-3,3-dimethyl-1,3-dihydrobenzo[c][1,2]oxaborol-6-yl)-5-methyl-1-(pyridin-2-yl)-1H-1,2,3-triazole-4-carboxamide] were, in that order, 310 to 100000 nM, 510 to 10000 nM, 310 to 10000 nM, 20000 to 100000 nM and 260 to 2000 nM.
The like results for `Cc1c(C(=O)Nc2ccc3c(c2)B(O)OC3)nnn1-c1cccc(C(F)(F)F)c1` [Example 87, N-(1-hydroxy-1,3-dihydrobenzo[c][1,2]oxaborol-6-yl)-5-methyl-1-(3-(trifluoromethyl)phenyl)-1H-1,2,3-triazole-4-carboxamide] were, in that order, 100 to 300 nM, 510 to 10000 nM, 100 to 300 nM, 3000 to 19900 nM and 100 to 250 nM.
For `COc1ccccc1-n1nnc(C(=O)Nc2ccc3c(c2)B(O)OC3)c1C` [Example 88, N-(1-hydroxy-1,3-dihydrobenzo[c][1,2]oxaborol-6-yl)-1-(2-methoxyphenyl)-5-methyl-1H-1,2,3-triazole-4-carboxamide], the IC50 in assay [1] was less than 100 nM; in assay [2], 201 to 500 nM; in assay [3], 100 to 300 nM; in assay [4], less than 3000 nM; in assay [5], 100 to 250 nM.
`Cc1c(C(=O)Nc2ccc3c(c2)B(O)OC3(C)C)nnn1-c1ccccc1` [Example 92, N-(1-hydroxy-3,3-dimethyl-1,3-dihydrobenzo[c][1,2]oxaborol-6-yl)-5-methyl-1-phenyl-1H-1,2,3-triazole-4-carboxamide]: the IC50 in assay [1] lay in the range of 310 to 100000 nM; in assay [2], 510 to 10000 nM; in assay [3] it was 310 to 10000 nM; in assay [4] it was 20000 to 100000 nM; in assay [5], 260 to 2000 nM.
